The values below come from publication PMC3559828 (PLoS ONE, 2013).

Bridge positions count the residues as written; N and C are the ends. Peptide text beside a SMILES is read from it.

One test addresses T1, Mouse α1β1γδ nAChR (Mus musculus, UniProt P02716+P04756+P09690+P20782).
T1 construct: expressed in transfected cells; host or cells: Xenopus oocytes injected with cRNA
Kind of test: cell-based.

The test system of another test is α9α10 nAChR. The conditions noted are these: cited from earlier work.
The subject of a further test is GABAB receptors. The conditions noted are these: cited from earlier work.

T1 sequence (P04756 21-457 limits assumed): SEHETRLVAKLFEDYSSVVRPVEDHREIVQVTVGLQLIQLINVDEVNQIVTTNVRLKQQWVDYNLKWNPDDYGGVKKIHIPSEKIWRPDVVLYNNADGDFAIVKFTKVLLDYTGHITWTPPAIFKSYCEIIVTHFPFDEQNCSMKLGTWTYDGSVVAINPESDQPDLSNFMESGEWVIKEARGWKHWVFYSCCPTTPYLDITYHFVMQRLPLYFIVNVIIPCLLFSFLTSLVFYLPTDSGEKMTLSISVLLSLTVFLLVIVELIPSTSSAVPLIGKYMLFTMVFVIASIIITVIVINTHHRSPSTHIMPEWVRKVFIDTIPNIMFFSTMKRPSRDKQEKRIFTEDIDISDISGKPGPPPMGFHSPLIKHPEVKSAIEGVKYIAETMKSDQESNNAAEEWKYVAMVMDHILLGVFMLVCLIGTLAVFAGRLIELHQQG
T1 sequence (P09690 24-501 partner limits assumed): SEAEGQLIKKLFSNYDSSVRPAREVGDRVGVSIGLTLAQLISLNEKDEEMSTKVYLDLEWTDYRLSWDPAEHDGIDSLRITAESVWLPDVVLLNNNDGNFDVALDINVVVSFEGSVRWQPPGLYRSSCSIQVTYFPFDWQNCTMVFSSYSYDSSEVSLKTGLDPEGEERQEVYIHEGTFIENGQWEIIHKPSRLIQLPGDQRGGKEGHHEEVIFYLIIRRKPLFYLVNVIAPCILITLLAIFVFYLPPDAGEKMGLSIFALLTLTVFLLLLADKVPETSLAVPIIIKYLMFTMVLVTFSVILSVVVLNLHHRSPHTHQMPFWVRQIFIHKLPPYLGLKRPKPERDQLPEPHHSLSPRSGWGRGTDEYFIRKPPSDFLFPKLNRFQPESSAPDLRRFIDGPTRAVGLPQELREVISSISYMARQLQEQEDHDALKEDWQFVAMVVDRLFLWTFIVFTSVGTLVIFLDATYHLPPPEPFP
T1 sequence (P02716 25-520 limits assumed): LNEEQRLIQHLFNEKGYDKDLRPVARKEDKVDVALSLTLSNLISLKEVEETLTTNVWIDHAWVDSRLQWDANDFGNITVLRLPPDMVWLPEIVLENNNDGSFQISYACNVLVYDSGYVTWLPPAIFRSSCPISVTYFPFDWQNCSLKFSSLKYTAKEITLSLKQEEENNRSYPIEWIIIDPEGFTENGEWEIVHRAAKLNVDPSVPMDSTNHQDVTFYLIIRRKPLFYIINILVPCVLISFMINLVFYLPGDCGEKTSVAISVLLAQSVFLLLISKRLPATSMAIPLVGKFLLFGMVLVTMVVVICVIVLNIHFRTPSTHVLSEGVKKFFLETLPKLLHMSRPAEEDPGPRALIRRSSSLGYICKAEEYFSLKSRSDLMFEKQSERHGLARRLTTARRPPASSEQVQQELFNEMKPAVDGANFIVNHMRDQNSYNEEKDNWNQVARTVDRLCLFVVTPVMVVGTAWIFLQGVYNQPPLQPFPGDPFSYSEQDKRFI
T1 sequence (P20782 21-493 limits assumed): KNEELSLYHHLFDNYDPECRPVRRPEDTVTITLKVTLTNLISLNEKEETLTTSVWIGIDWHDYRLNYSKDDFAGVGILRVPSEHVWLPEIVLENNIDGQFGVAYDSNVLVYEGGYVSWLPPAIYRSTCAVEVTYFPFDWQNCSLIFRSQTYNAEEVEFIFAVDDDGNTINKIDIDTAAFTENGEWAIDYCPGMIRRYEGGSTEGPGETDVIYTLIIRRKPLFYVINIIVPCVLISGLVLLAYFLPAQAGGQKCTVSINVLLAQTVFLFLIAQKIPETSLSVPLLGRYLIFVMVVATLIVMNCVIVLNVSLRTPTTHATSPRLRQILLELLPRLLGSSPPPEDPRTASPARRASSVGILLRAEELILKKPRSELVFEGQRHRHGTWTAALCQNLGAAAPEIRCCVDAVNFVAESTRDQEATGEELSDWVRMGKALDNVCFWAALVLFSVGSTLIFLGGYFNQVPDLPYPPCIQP

Usually IC50 stands for the concentration that gives 50% inhibition. `CC(C)C[C@@H]1NC(=O)[C@@H](NC(=O)[C@H](CCCNC(=N)N)NC(=O)[C@@H](N)C(C)C)CSSC[C@@H](C(=O)N[C@H]2CSSC[C@@H](C(=O)N[C@H](C(=O)N[C@@H](Cc3ccc(O)cc3)C(=O)N[C@@H](Cc3ccc(O)cc3)C(=O)N[C@H](C(=O)N[C@@H](CCC(N)=O)C(=O)N[C@@H](CO)C(=O)N[C@@H](CCCNC(=N)N)C(=O)N[C@@H](CCC(=O)O)C(=O)O)[C@@H](C)O)C(C)C)NC(=O)[C@H](CCCNC(=N)N)NC(=O)[C@H](CO)NC(=O)[C@H](Cc3c[nH]cn3)NC(=O)[C@H](CCCNC(=N)N)NC(=O)[C@H](C)NC(=O)[C@H](Cc3ccccc3)NC(=O)[C@H](CO)NC(=O)[C@@H]3CCCN3C(=O)CNC(=O)[C@H](CCCCN)NC(=O)[C@H](CCC(N)=O)NC2=O)NC(=O)[C@@H]2CCCN2C(=O)[C@@H]2CCCN2C(=O)[C@H](CCCNC(=N)N)NC(=O)[C@H](Cc2ccccc2)NC(=O)[C@H](CC(C)C)NC(=O)[C@H](CCCCN)NC(=O)[C@H](CC(N)=O)NC(=O)[C@@H]2CCCN2C(=O)[C@H](CCC(N)=O)NC(=O)[C@H](C)NC(=O)CNC(=O)[C@H](CO)NC(=O)[C@H](CCCCN)NC(=O)[C@H](CCC(=O)O)NC1=O` [αB-VxXXIVA [1], [2]] (H-VRCLEKSGAQPNKLFRPPCCQKGPSFARHSRCVYYTQSRE-OH; disulfide 3-19, 20-32) returned an IC50 at Mouse α1β1γδ nAChR of 6.6 µM.

Regarding α-conotoxin RgIA, in the test on α9α10 nAChR, the IC50 is 0.019 µM. In addition, the “activity at GABAB receptors” value in the test with GABAB receptors is “activate GABAB receptors”.
